Here are results for 15 compounds from patent publication US4822778A, “Membrane stabilizing phenoxy-piperidine compounds and pharmaceutical compositions employing such compounds” (Aberg; Gunnar, priority 1988, dated 1989).

Data set [1] is described as follows: Convulsive and lethal doses in rats, intravenous infusion. It is filed as in vivo. The following applies: rat, in vivo, iv; male rats, i.v. at 1.0 mg/kg/min; read-out: Convulsive dose. As to the method:
(§1) Convulsive doses and lethal doses after intravenous administration for selected compounds of the invention and for Bupivacaine are shown in Table 3 below.
(§2) Convulsive and lethal doses of selected compounds
(§3) administered intravenously at 1.0 mg/kg/min to rats (male;

The next data set deals with rats. The description is as above. The following applies: male rats, i.v. at 1.0 mg/kg/min. It is filed as in vivo. As to the method: as §1, §2, §3
Another data set in a line: in vivo. To be noted: mouse, sc.
A further data set concerns sciatic nerve. In words: Nerve blocking effects in rats in vivo. To be noted: 0.25 ml of 0.5% by weight solution. As to the method:
B. Nerve blocking effects. The tests were carried out in vivo in rats after injection of 0.25 ml of the test solutions close to the sciatic nerve.

A further data set relates to rabbit cornea. The data set is described as follows: Topical anesthetic effects, corneal test in rabbits in vivo. The following applies: 0.25 ml. As to the method:
C. Topical anesthetic effects. Corneal tests were carried out in rabbits in vivo according to Henn.

The subject of another data set is ventricular arrhythmias. The data set is described as follows: Antiarrhythmic effects, ouabain-induced ventricular arrhythmias in anesthetized dogs. It counts as in vivo. To be noted: i.v. As to the method:
2. Antiarrhythmic effects.
Ventricular arrhythmias were induced in anesthetized dogs by intravenous injection of ouabain: initially 40 μg/kg bodyweight and thereafter 20 μg/kg bodyweight every 20 minutes until the ventricular arrhythmia was regarded as manifest. Lidocaine was also tested by the same procedure. The new compounds were compared with lidocaine, a known antiarrhythmic compound.

For the next data set, the system named is guinea pigs. In words: Infiltration anesthetic effects, intracutaneous injection in guinea pigs. It is filed as in vivo. The following applies: 0.2 ml of 0.5% by weight solution. As to the method: 1. […] A. Infiltration anesthetic effects: The effects of the new compounds were tested according to Aberg & […], Acta Anaesth.
Another data set relates to lingomandibular reflex. In words: Interneuronblocking effects, lingomandibular reflex in anesthetized cats. It counts as in vivo, cats (female; 2.5-3.5 kg). As to the method: 3. Interneuronblocking effects.
Tests were carried out in anesthetized cats (female; 2.5-3.5 kg bodyweight). The effects of the compounds were studied on the lingomandibular reflex, which was provoked by means of electrical stimulation of the tongue. The mandibular reflux was registered from a transducer connected to the mandible. Phenyramidole was tested by the same procedure. As evident from the results shown in Table 8, the compound according to Example 2 of the invention is 10 times as potent as phenyramidole.

Another data set deals with cynomolgus monkeys. In words: Spinal anesthetic effects in monkeys, intrathecal injection. It is filed as in vivo. To be noted: intrathecal 1.0 ml. As to the method: D. Spinal Anesthetic Effects.
Spinal anesthetsias were performed on cynomolgus monkeys that had been sedated with ketamine (6 mg/kg; i.m.). 1.0 ml of the test solutions were injected intrathecally and the durations were tested every ten (10) minutes with forceps. The duration of motoric blockade was calculated as the time until the hind leg paralysis ceased.

Molecules are shown by their SMILES.

On to `CCCCN1CCCCC1C(=O)Nc1c(C)cccc1C` (centres unmarked) [Bupivacaine, reference compound], for which the TD50 in data set [1] came out at 9 mg/kg. Besides, in the data set with rats, the Lethal dose is recorded as 13 mg/kg. Also, in “in vivo”, the median lethal dose (LD50) (commonly the dose expected to kill half of the subjects tested) worked out at 50 mg/kg.

For `Cc1cccc(C)c1OCC1CCCCN1` (centres unmarked) [Example 1, 2-[(2,6-xyloxy)methyl]piperidine], in the data set with sciatic nerve, the “Nerve blocking effect, Motoric blockade” value is given as 75 min and the “Nerve blocking effect, Sensoric blockade” value came out at 90 min. In the data set on rabbit cornea (concentration 1.0%), the “Topical anesthetic effect, Duration” value was 24 ± 4 min and the “Topical anesthetic effect, Onset frequency” value is 9/10. The TD50 in data set [1] was 22 mg/kg. Also, in the data set on rats, the Lethal dose is 50 mg/kg. In the data set “in vivo”, this compound had an LD50 of 110 mg/kg. Further, the Duration of regularization with ventricular arrhythmias (1 mg/kg) turned out to be 5 min. For the same compound, in the data set with ventricular arrhythmias (2 mg/kg), the Duration of regularization is 10 min. For the same compound, the Infiltration anesthesia duration in the data set with guinea pigs was found to be 40 min.

For the compound `Cc1cccc(C)c1OCC1CCCCN1C.Cl` (centres unmarked) [Example 2, N-methyl-2-[(2,6-xyloxy)methyl]-piperidine hydrochloride], the “Nerve blocking effect, Motoric blockade” value in the data set with sciatic nerve stood at 110 min. Besides, in the data set on sciatic nerve, the “Nerve blocking effect, Sensoric blockade” value amounted to 135 min. Moreover, in the data set with rabbit cornea (concentration 1.0%), the “Topical anesthetic effect, Duration” value was found to be 14 ± 4 min. Moreover, in the data set on rabbit cornea (concentration 1.0%), the “Topical anesthetic effect, Onset frequency” value is 7/10. Further, the inhibition (commonly the change of the read-out against control, counted positive when it falls) at 0.25 mg/kg with lingomandibular reflex (Felis catus, iv, 0.25 mg/kg bodyweight, read-out: Maximal inhibition) amounted to 30%. Also, the inhibition at 0.5 mg/kg with lingomandibular reflex (Felis catus, iv, 0.50 mg/kg bodyweight, read-out: Maximal inhibition) worked out at 80%. In addition, in the data set on lingomandibular reflex (Felis catus, iv, 1.00 mg/kg bodyweight, read-out: Maximal inhibition), the inhibition at 1 mg/kg was found to be 100%. The Duration of inhibition worked out at 10 min in the data set on lingomandibular reflex (i.v., 0.25 mg/kg bodyweight); 20 min in the data set on lingomandibular reflex (i.v., 0.50 mg/kg bodyweight); 45 min with lingomandibular reflex (i.v., 1.00 mg/kg bodyweight). Besides, the “Potency relative to phenyramidole” value with lingomandibular reflex (i.v., compared with phenyramidole) came out at 10 times. Further, in data set [1], the TD50 turned out to be 10 mg/kg. Besides, in the data set on rats, the Lethal dose came out at 33 mg/kg. In “in vivo”, the LD50 was 260 mg/kg. For the same compound, the Duration of regularization with ventricular arrhythmias (1 mg/kg) was found to be 2 min; with ventricular arrhythmias (2 mg/kg), 4 min. The Infiltration anesthesia duration with guinea pigs is reported as 120 min.

For `CC1CCCC(C)C1OCC1CCCCN1` (centres unmarked) [Example 3, 2-[(2,6-dimethylcyclohexyloxy)methyl]piperidine], in the data set on sciatic nerve, the “Nerve blocking effect, Motoric blockade” value came out at 0 min and the “Nerve blocking effect, Sensoric blockade” value came to 0 min. The same compound showed an LD50 in the data set “in vivo” of 180 mg/kg. In the data set with guinea pigs, this compound registered an Infiltration anesthesia duration of 35 min.

In the case of `CC1CCCC(C)C1OCC1CCCCN1C` (centres unmarked) [Example 4], in the data set with sciatic nerve, the “Nerve blocking effect, Motoric blockade” value was 65 min and the “Nerve blocking effect, Sensoric blockade” value is given as 80 min. The LD50 in “in vivo” worked out at 350 mg/kg. In the data set on guinea pigs, this compound came in with an Infiltration anesthesia duration of 60 min.

For `CCN1CCCCC1COc1c(C)cccc1C` (centres unmarked) [Example 5, N-ethyl-2-[(2,6-xyloxy)-methyl]piperidine], in the data set with sciatic nerve, the “Nerve blocking effect, Motoric blockade” value is listed as 90 min and the “Nerve blocking effect, Sensoric blockade” value is 115 min. For the same compound, in the data set with rabbit cornea (concentration 1.0%), the “Topical anesthetic effect, Duration” value was 18 ± 3 min and the “Topical anesthetic effect, Onset frequency” value is reported as 9/10. Also, in the data set with cynomolgus monkeys (3.0% by wt.), the “Duration, Anal Blockade” value turned out to be 258 min; the “Duration, Digital Blockade” value is 163 min; the “Duration, Motor Blockade” value came out at 178 min. Also, the TD50 in data set [1] came to 15 mg/kg. The compound further yielded a Lethal dose in the data set on rats of 41 mg/kg. Also, the LD50 in the data set “in vivo” stood at 200 mg/kg. Besides, in the data set with ventricular arrhythmias (1 mg/kg), the Duration of regularization came out at 3 min. This compound had an Infiltration anesthesia duration with guinea pigs of 70 min.

Consider `CCCN1CCCCC1COc1c(C)cccc1C` (centres unmarked) [Example 6, N-(n-propyl)-2-[(2,6-xyloxy)methyl]piperidine], for which, in the data set with sciatic nerve, the “Nerve blocking effect, Motoric blockade” value was 145 min and the “Nerve blocking effect, Sensoric blockade” value is listed as 155 min. In addition, in the data set with rabbit cornea (concentration 1.0%), the “Topical anesthetic effect, Duration” value is recorded as 24 ± 2 min and the “Topical anesthetic effect, Onset frequency” value is on record as 9/9. Moreover, in the data set on cynomolgus monkeys (3.0% by wt.), the “Duration, Anal Blockade” value was more than 291 min; the “Duration, Digital Blockade” value worked out at 222 min; the “Duration, Motor Blockade” value was more than 198 min. In data set [1], the TD50 came to 11 mg/kg. Besides, the Lethal dose in the data set on rats was 20 mg/kg. The same compound had an LD50 in the data set “in vivo” of 200 mg/kg. The same compound yielded a Duration of regularization in the data set with ventricular arrhythmias (1 mg/kg) of 4 min. For the same compound, the Infiltration anesthesia duration with guinea pigs is 175 min.

As to `CCCCN1CCCCC1COc1c(C)cccc1C` (centres unmarked) [Example 7, N-(n-butyl)-2-[(2,6-xyloxy)methyl]piperidine], in the data set with sciatic nerve, the “Nerve blocking effect, Motoric blockade” value was 140 min and the “Nerve blocking effect, Sensoric blockade” value came to 160 min. Moreover, in the data set with rabbit cornea (concentration 1.0%), the “Topical anesthetic effect, Duration” value amounted to 27 ± 4 min and the “Topical anesthetic effect, Onset frequency” value was 10/10. Besides, the TD50 in data set [1] worked out at 16 mg/kg. This compound also displayed a Lethal dose with rats of 24 mg/kg. The LD50 in the data set “in vivo” turned out to be 225 mg/kg. In the data set on ventricular arrhythmias (1 mg/kg), this compound gave a Duration of regularization of 4 min. The same compound gave an Infiltration anesthesia duration in the data set with guinea pigs of 165 min.

Consider `Cc1ccc(OCC2CCCCN2C)c(C)c1` (centres unmarked) [Example 8], for which, in the data set on sciatic nerve, the “Nerve blocking effect, Motoric blockade” value amounted to 55 min and the “Nerve blocking effect, Sensoric blockade” value is 75 min. The compound also registered a 50% lethal dose (LD50) in “in vivo” of 400 mg/kg. In addition, the Infiltration anesthesia duration in the data set with guinea pigs is 35 min.

With `Cc1ccc(C)c(OCC2CCCCN2C)c1` (centres unmarked) [Example 9], in the data set on sciatic nerve, the “Nerve blocking effect, Motoric blockade” value worked out at 75 min and the “Nerve blocking effect, Sensoric blockade” value was determined as 95 min. This compound had a median lethal dose (LD50) in “in vivo” of 400 mg/kg. Besides, the Infiltration anesthesia duration in the data set with guinea pigs turned out to be 25 min.

For the compound `CN1CCCCC1COc1ccccc1` (centres unmarked) [Example 10], in the data set on sciatic nerve, the “Nerve blocking effect, Motoric blockade” value was 25 min and the “Nerve blocking effect, Sensoric blockade” value was determined as 40 min. In addition, the median lethal dose (LD50) in the data set “in vivo” worked out at 150 mg/kg. The same compound came in with an Infiltration anesthesia duration in the data set with guinea pigs of 35 min.

Regarding `Cc1ccccc1OCC1CCCCN1C` (centres unmarked) [Example 11], in the data set with sciatic nerve, the “Nerve blocking effect, Motoric blockade” value is recorded as 60 min and the “Nerve blocking effect, Sensoric blockade” value worked out at 85 min. This compound had an LD50 in “in vivo” of 300 mg/kg. In the data set on guinea pigs, this compound had an Infiltration anesthesia duration of 55 min.

On to `Cc1cccc(C)c1OCC1CCCCN1CCO` (centres unmarked) [Example 12], for which, in the data set on sciatic nerve, the “Nerve blocking effect, Motoric blockade” value was found to be 95 min and the “Nerve blocking effect, Sensoric blockade” value was determined as 95 min. In addition, the LD50 in the data set “in vivo” turned out to be 220 mg/kg. Besides, the Infiltration anesthesia duration in the data set with guinea pigs is listed as 40 min.

With `CCN(CC)CC(=O)Nc1c(C)cccc1C` [Lidocaine, reference compound], in the data set on sciatic nerve, the “Nerve blocking effect, Motoric blockade” value is listed as 40 min and the “Nerve blocking effect, Sensoric blockade” value turned out to be 35 min. Moreover, in the data set on rabbit cornea (concentration 4.0%), the “Topical anesthetic effect, Duration” value is listed as 23 ± 3 min and the “Topical anesthetic effect, Onset frequency” value was 10/10. In the data set on cynomolgus monkeys (5.0% by wt.), the “Duration, Anal Blockade” value is 150 min; the “Duration, Digital Blockade” value is 88 min; the “Duration, Motor Blockade” value is 73 min. The Duration of regularization in the data set with ventricular arrhythmias (1 mg/kg) was determined as 2 min. In the data set on ventricular arrhythmias (2 mg/kg), this compound registered a Duration of regularization of 4 min. Further, the Infiltration anesthesia duration with guinea pigs was 25 min.

With `OC(CNc1ccccn1)c1ccccc1` (centres unmarked) [Phenyramidole, reference compound], in the data set with lingomandibular reflex (Felis catus, iv, 2.5 mg/kg bodyweight, read-out: Maximal inhibition), the inhibition at 2.5 mg/kg turned out to be 40%. Besides, the inhibition at 5 mg/kg in the data set on lingomandibular reflex (Felis catus, iv, 5.0 mg/kg bodyweight, read-out: Maximal inhibition) came to 80%. In addition, the inhibition at 10 mg/kg in the data set on lingomandibular reflex (Felis catus, iv, 10.0 mg/kg bodyweight, read-out: Maximal inhibition) was 100%. In addition, the Duration of inhibition in the data set on lingomandibular reflex (i.v., 2.5 mg/kg bodyweight) turned out to be 5 min; with lingomandibular reflex (i.v., 5.0 mg/kg bodyweight), 20 min; in the data set with lingomandibular reflex (i.v., 10.0 mg/kg bodyweight), 60 min.
